Values of other authors as cited in patent publication US20250066696A1, “A STABLE BLEACH COMPOSITION” (Conopco Inc., d/b/a UNILEVER, priority 2021, published 2025).

pKa: 5.23
SMILES: CCCCC(C)CCC(=O)O (stereo not shown) [4-methyl octanoic acid]
